Assay results reported in the Deep4Chem optical property database.

Assay: solvent given as SMILES

Structure (SMILES): CN(C)c1ccc(C2=Nc3sc4c(F)c(F)c(F)c(F)c4[n+]3[B-](F)(F)O2)cc1
- emission maximum (in C1CCOC1): 492 nm
- emission maximum (in CC#N): 503 nm
- emission maximum (in Cc1ccccc1): 464 nm
- emission maximum (in ClCCl): 483 nm

Structure (SMILES): [C-]#[N+]c1ccc(-c2ccc(NC)cc2)cc1
- emission maximum (in C1CCCCC1): 368 nm
- emission maximum (in C1CCOC1): 406 nm
- emission maximum (in C1COCCO1): 395 nm
- emission maximum (in CC#N): 421 nm
- emission maximum (in CC(C)=O): 427 nm
- emission maximum (in CCCCCC): 366 nm
- emission maximum (in CCOC(C)=O): 403 nm
- emission maximum (in CN(C)C=O): 435 nm
- emission maximum (in CO): 422 nm
- emission maximum (in CS(C)=O): 436 nm
- emission maximum (in Cc1ccccc1): 388 nm
- emission maximum (in ClC(Cl)Cl): 400 nm
- emission maximum (in ClCCl): 405 nm
- emission maximum (in O): 458 nm
- emission maximum (in c1ccncc1): 421 nm

Structure (SMILES): COc1cc(-c2cc(-c3ccccc3)c(-c3ccccc3)c(-c3ccccc3)c2-c2ccccc2)c(OC)cc1-c1ccc(N(C)C)cc1
- emission maximum (in ClC(Cl)Cl): 396 nm

Structure (SMILES): COc1ccc2c(c1)c1c(c3cc(OC)ccc32)=[N+]2C(=C(c3c(C)cc(C)cc3C)c3cc4c5cc(OC)ccc5c5ccc(OC)cc5c4n3[B-]2(F)F)C=1
- emission maximum (in C1CCCCC1): 710 nm
- emission maximum (in C1CCOC1): 713 nm
- emission maximum (in CC#N): 711 nm
- emission maximum (in Cc1ccccc1): 717 nm
- emission maximum (in ClCCl): 713 nm

Structure (SMILES): CCC1=C(C)C2=Cc3ccccc3B(O)N2C1=O
- emission maximum (in CC#N): 411 nm
- emission maximum (in CCCCCC): 405 nm
- emission maximum (in CO): 411 nm
- emission maximum (in CS(C)=O): 416 nm
- emission maximum (in ClC(Cl)Cl): 418 nm

Structure (SMILES): CCOC(=O)c1c(CSc2ccccc2)n(C)c2cc(Br)c(O)c(CN(C)C)c12
- emission maximum (in O): 350 nm

Structure (SMILES): Fc1cc(-c2nc(-c3ccccc3)nc(-c3ccccc3)n2)ccc1-n1c2ccccc2c2c3c(ccc21)C1(c2ccccc2-c2ccccc21)c1ccccc1-3
- emission maximum (in C1CCOC1): 487.96 nm
- emission maximum (in C1COCCO1): 461.11 nm
- emission maximum (in CN(C)C=O): 533.56 nm
- emission maximum (in Cc1ccccc1): 448 nm
- emission maximum (in ClC(Cl)Cl): 500.23 nm

Structure (SMILES): COc1ccc2cc(-c3ccc(-c4cc5ccc(OC)cc5oc4=O)cc3)c(=O)oc2c1
- emission maximum (in ClC(Cl)Cl): 434 nm

Structure (SMILES): C(#Cc1cccs1)C(C#Cc1cccs1)=Cc1ccc(C=C(C#Cc2cccs2)C#Cc2cccs2)cc1
- emission maximum (in ClC(Cl)Cl): 498 nm

Structure (SMILES): COc1ccc(C2=[N+]3C(=Nc4c(-c5ccccc5)cc(-c5ccc(OC)cc5)n4[B-]3(F)F)C(c3ccccc3)=C2)cc1
- emission maximum (in ClC(Cl)Cl): 715 nm
- emission maximum (in ClCCl): 715 nm

Structure (SMILES): COC(=O)C[C@H](NC(=O)[C@H](Cc1c[nH]c2ccccc12)NC(=O)OC(C)(C)C)C(=O)OC
- emission maximum (in CC#N): 330 nm
- emission maximum (in CCOC(C)=O): 327 nm
- emission maximum (in CO): 338 nm

Structure (SMILES): N#Cc1ccc(C#Cc2ccc3ccc4ccc(C#Cc5ccc(C#N)cc5)c5ccc2c3c45)cc1
- emission maximum (in C1COCCO1): 443.3 nm
- emission maximum (in CC(C)=O): 445.8 nm
- emission maximum (in CCCCCC): 435.5 nm
- emission maximum (in CCCCCCO): 448 nm
- emission maximum (in CCO): 445.5 nm
- emission maximum (in CCOC(C)=O): 442.4 nm
- emission maximum (in CO): 445.3 nm
- emission maximum (in Cc1ccccc1): 446.4 nm
- emission maximum (in ClCCl): 448.8 nm

Structure (SMILES): CCCCN1c2ccccc2Sc2cc(/C=C\c3cc(=O)oc4cc(C)ccc34)ccc21
- emission maximum (in ClC(Cl)Cl): 632 nm

Structure (SMILES): Nc1ccc2nc3c4ccccc4c(=[NH2+])cc-3oc2c1
- emission maximum (in CCO): 619 nm

Structure (SMILES): CCCCN1C(=O)c2ccc3c4c(Br)cc5c6c(ccc(c7c(Br)cc(c2c37)C1=O)c64)C(=O)N(CCCC)C5=O
- emission maximum (in ClC(Cl)Cl): 542 nm

Structure (SMILES): CCCCCCN(c1ccccc1)c1ccc(/C=C/c2cc(=O)oc3cc(C)ccc23)cc1
- emission maximum (in CS(C)=O): 583 nm
- emission maximum (in ClC(Cl)Cl): 544 nm

Structure (SMILES): O=C(c1ccc(C(=C(c2ccccc2)c2ccccc2)c2ccccc2)cc1)c1ccc(-n2c3ccccc3c3ccccc32)cc1
- emission maximum (in C1CCOC1): 496 nm

Structure (SMILES): CCc1c(CC)c2n(c1C)[B-](F)(F)[N+]1=C(C)c3cc4c(cc3C1=C2)=[N+]1C(=Cc2c(CC)c(CC)c(C)n2[B-]1(F)F)C=4C
- emission maximum (in ClC(Cl)Cl): 774 nm

Structure (SMILES): Nc1ccc(/C=C/c2cccnc2)cc1
- emission maximum (in CC#N): 446 nm
- emission maximum (in CCCCCC): 390 nm

Structure (SMILES): CC(C)CCCC(C)CCN1C(=O)c2ccc3c(-c4ccccc4)c4c5ccc6c7c(ccc(c(-c8ccccc8)c4c4ccc(c2c34)C1=O)c75)C(=O)N(CCC(C)CCCC(C)C)C6=O (centres undefined)
- emission maximum (in ClCCl): 704 nm

Structure (SMILES): O=C1c2cc(-n3c4ccccc4c4ccccc43)c(-n3c4ccccc4c4ccccc43)cc2C(=O)N1c1ccccc1
- emission maximum (in Cc1ccccc1): 510 nm

Structure (SMILES): CN(C)c1cc(-c2ccc(C#Cc3cc[n+](C)cc3)cc2)cc2ccccc12
- emission maximum (in ClCCl): 510 nm

Structure (SMILES): COC(=O)c1nc(-c2cccc3ccccc23)oc1C
- emission maximum (in C1CCCCC1): 340 nm
- emission maximum (in CC#N): 343 nm
- emission maximum (in CCO): 344 nm
- emission maximum (in CCOC(C)=O): 342 nm

Structure (SMILES): Fc1nc(F)c(F)c(C#Cc2nccnc2C#Cc2c(F)c(F)nc(F)c2F)c1F
- emission maximum (in CC#N): 440 nm

Structure (SMILES): F[B-]1(F)OC(c2ccccc2)=C(c2ccccc2)c2sc3ccccc3[n+]21
- emission maximum (in C1CCOC1): 446 nm

Structure (SMILES): CCCCCCCCOc1ccc(C2=C3C(C)=CC(C)=[N+]3[B-](F)(F)n3c(C)cc(C)c32)cc1
- emission maximum (in ClCCl): 513 nm

Structure (SMILES): CC(C)(C)c1ccc2c(c1)c1cc(C(C)(C)C)ccc1n2-c1ccc(C(=C(C#N)C#N)c2ccc(-n3c4ccc(C(C)(C)C)cc4c4cc(C(C)(C)C)ccc43)cc2)cc1
- emission maximum (in Cc1ccccc1): 566 nm

Structure (SMILES): COC(=O)c1ccc(/C=C/C(F)(F)F)c(N)c1
- emission maximum (in C1CCOC1): 447 nm

Structure (SMILES): CCn1c2ccccc2c2c(N(c3ccccc3)c3ccccc3)cccc21
- emission maximum (in ClCCl): 418 nm

Structure (SMILES): O=c1cc2cc(O)c3cc(O)cc4ccc(o1)c2c43
- emission maximum (in CC1CCCO1): 483 nm

Structure (SMILES): [O-]c1ccc2ccccc2c1
- emission maximum (in O): 414 nm

Structure (SMILES): CC(C)(C)c1ccc2c(c1)[nH]c1c3[nH]c4cc(C(C)(C)C)ccc4c3c3nsnc3c21
- emission maximum (in CN(C)C=O): 507 nm
- emission maximum (in Cc1ccccc1): 472 nm
- emission maximum (in ClCCl): 502 nm

Structure (SMILES): CC(C)c1cccc(C(C)C)c1N1C(=O)c2ccc3c4c(-c5ccc(C(=O)O)cc5)c5ccc6c7c(cc8c9cc(C(=O)O)ccc9c(c9ccc(c2c39)C1=O)c4c8c57)C(=O)N(c1c(C(C)C)cccc1C(C)C)C6=O
- emission maximum (in ClCCl): 626 nm

Structure (SMILES): COC(=O)c1ccc(/C=C2\C=C(c3ccc(OC)c(OC)c3)NC2=O)cc1
- emission maximum (in C1COCCO1): 574 nm

Structure (SMILES): O=P(c1c2ccccc2cc2ccccc12)(c1c2ccccc2cc2ccccc12)c1c2ccccc2cc2ccccc12
- emission maximum (in C1CCOC1): 452 nm

Structure (SMILES): C(=C(c1ccccc1)c1ccccc1)c1ccc(-c2ccc(-c3nc4c5ccccc5c5ccccc5c4n3-c3cccc(-c4ccc(C=C(c5ccccc5)c5ccccc5)cc4)c3)cc2)cc1
- emission maximum (in C1CCOC1): 449 nm

Structure (SMILES): COc1ccc(C2=[O+][B-](F)(F)OC(c3ccc4c(c3)Cc3ccccc3-4)=C2)cc1
- emission maximum (in CC#N): 466 nm

Structure (SMILES): Cc1ccc(C2=C3C=CC(/C=C/c4ccccc4)=[N+]3[B-](F)(F)n3c(/C=C/c4ccccc4)ccc32)cc1
- emission maximum (in C1CCCCC1): 642 nm
- emission maximum (in C1CCOC1): 645 nm
- emission maximum (in C1COCCO1): 646 nm
- emission maximum (in CCOC(C)=O): 641 nm
- emission maximum (in CO): 639 nm
- emission maximum (in Cc1ccccc1): 649 nm
- emission maximum (in ClC(Cl)Cl): 647 nm

Structure (SMILES): CC1(C)c2ccccc2-c2ccc(N(c3ccccc3)c3ccc4c(c3)C(C)(C)c3cc(-c5cc6ccccc6c6c5oc5ccccc56)ccc3-4)cc21
- emission maximum (in C1CCOC1): 469 nm

Structure (SMILES): COc1ccc(N(c2ccc(OC)cc2)c2ccc3ccc4c(B(c5c(C)cc(C)cc5C)c5c(C)cc(C)cc5C)ccc5ccc2c3c54)cc1
- emission maximum (in C1CCOC1): 626 nm
- emission maximum (in CC(C)=O): 658 nm
- emission maximum (in CCCCCC): 534 nm
- emission maximum (in Cc1ccccc1): 575 nm
- emission maximum (in ClC(Cl)Cl): 601 nm
- emission maximum (in ClCCl): 633 nm

Structure (SMILES): CN(C)c1ccc(/C=C/C=C/c2nc3ccccc3s2)cc1
- emission maximum (in C1COCCO1): 516 nm
- emission maximum (in CC#N): 562 nm
- emission maximum (in CC(C)=O): 557 nm
- emission maximum (in CCCCCC): 478 nm
- emission maximum (in CCCCO): 531 nm
- emission maximum (in CCCO): 533 nm
- emission maximum (in CCO): 560 nm
- emission maximum (in CN(C)C=O): 567 nm
- emission maximum (in CO): 573 nm
- emission maximum (in Cc1ccccc1): 500 nm
- emission maximum (in ClC(Cl)(Cl)Cl): 499 nm
- emission maximum (in ClC(Cl)Cl): 526 nm
- emission maximum (in ClCCl): 533 nm
- emission maximum (in OCC(O)CO): 583 nm
- emission maximum (in OCCO): 583 nm
- emission maximum (in c1ccccc1): 504 nm

Structure (SMILES): N#Cc1nc2cnc(N)nc2n1Cc1ccccc1
- emission maximum (in C1COCCO1): 381 nm
- emission maximum (in CC#N): 381 nm
- emission maximum (in CO): 398 nm
- emission maximum (in ClCCl): 381 nm
- emission maximum (in O): 406 nm

Structure (SMILES): C[Si]1(C)O[Si](C)(C)c2cc3c(-c4ccc(F)cc4)c4ccccc4nc3cc21
- emission maximum (in ClCCl): 503 nm

Structure (SMILES): CC(C)(C)c1ccc2c(c1)c1cc(C(C)(C)C)ccc1n2-c1ccc2oc3nc4oc5cc(C(F)(F)F)ccc5c4cc3c2c1
- emission maximum (in ClC(Cl)Cl): 466 nm

Structure (SMILES): Cc1cc(N(C)C)ccc1C1=C2C=CC(=[N+](C)C)C=C2[Si](C)(C)c2cc(N(C)C)ccc21
- emission maximum (in O): 663 nm

Structure (SMILES): O=C1NC(=O)c2ccc(N3CCOCC3)c3cccc1c23
- emission maximum (in ClC(Cl)Cl): 504 nm

Structure (SMILES): CC1=CC(C)=[N+]2C1=C(c1ccc(I)cc1)c1c(C)cc(C)n1[B-]2(Oc1ccc([N+](=O)[O-])cc1)Oc1ccc([N+](=O)[O-])cc1
- emission maximum (in ClC(Cl)Cl): 516.5 nm

Structure (SMILES): C(#Cc1c(C#Cc2cccs2)c(C#Cc2cccs2)c(C#Cc2cccs2)c(C#Cc2cccs2)c1C#Cc1cccs1)c1cccs1
- emission maximum (in ClCCl): 453 nm

Structure (SMILES): CCOC(=O)c1c2c3c(ccc(C)c3c3cc4c(cc13)[Si](C)(C)O[Si]4(C)C)N(C)C2=O
- emission maximum (in CC#N): 413 nm

Structure (SMILES): O[Si](c1c2ccccc2cc2ccccc12)(c1c2ccccc2cc2ccccc12)c1c2ccccc2cc2ccccc12
- emission maximum (in ClC(Cl)Cl): 434 nm

Structure (SMILES): N#CC1=C(N)n2c(=O)c3ccccc3c(=O)n2C1c1ccccc1 (centres undefined)
- emission maximum (in CS(C)=O): 438 nm

Structure (SMILES): COc1ccc(C2=[N+]3C(=Nc4c(-c5cc(OC)c(OC)c(OC)c5)c(Br)c(-c5ccc(OC)cc5)n4[B-]3(F)F)C(c3cc(OC)c(OC)c(OC)c3)=C2Br)cc1
- emission maximum (in Cc1ccccc1): 723 nm

Structure (SMILES): O=S1(=O)C2=C(c3ccc(-c4ccc(N(c5ccccc5)c5ccccc5)cc4)cc31)C1(C3=C(c4ccccc41)S(=O)(=O)c1cc(-c4ccc(N(c5ccccc5)c5ccccc5)cc4)ccc13)c1ccccc12
- emission maximum (in C1CCOC1): 599 nm
- emission maximum (in CC#N): 665 nm
- emission maximum (in CCCCCC): 485 nm
- emission maximum (in Cc1ccccc1): 543 nm
- emission maximum (in ClCCl): 624 nm
